Laboratory results taken from paper PMC8041284, “Tunable Methacrylamides for Covalent Ligand Directed Release Chemistry” (Journal of the American Chemical Society, 2021).
Where a SMILES comes first, the peptide text is derived from it. [ ]: non-standard residue; d: D form. pGlu = O=C1CC[C@@H](C(=O)O)N1; Thz = O=C(O)[C@@H]1CSCN1

Biological target: BTK (Homo sapiens, UniProt Q06187)
Experiment: biochemical
Settings: read-out: BTK inhibition (%), 0.75 uM BTK, […] probe 3l, 15 min preincubation

Sequence of BTK (Q06187 402-655 limits assumed): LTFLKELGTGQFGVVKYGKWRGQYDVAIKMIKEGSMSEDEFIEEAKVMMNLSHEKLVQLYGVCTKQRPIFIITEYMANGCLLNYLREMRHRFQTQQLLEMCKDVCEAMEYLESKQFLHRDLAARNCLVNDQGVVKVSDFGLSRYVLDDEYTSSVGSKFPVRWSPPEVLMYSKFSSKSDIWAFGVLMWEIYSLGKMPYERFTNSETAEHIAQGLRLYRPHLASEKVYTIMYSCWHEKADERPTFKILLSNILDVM

Structure (SMILES)	inhibition at 10 µM
C[C@H]1CC[C@@]2(OC1)O[C@H]1C[C@H]3[C@@H]4CC[C@@H]5C[C@@H](O[C@@H]6O[C@H](CO)[C@H](O)[C@H](O)[C@H]6O[C@@H]6O[C@H](CO)[C@@H](O)[C@H](O)[C@H]6O)CC[C@]5(C)[C@H]4CC[C@]3(C)[C@H]1[C@@H]2C [PCM-0216400]	1.5%
COc1cc2c(cc1O)CC[C@@H]1[C@@H]2CC[C@]2(C)[C@@H](O)CC[C@@H]12 [PCM-0214607]	-2.8%
CN1CCC(COc2cnc(-c3cccc(Cn4nc(-c5cccc(C#N)c5)ccc4=O)c3)nc2)CC1 [PCM-0215322]	22.1%
Cc1cc(C(C)(C)C)cc(C)c1CC1=NCCN1 [PCM-0064984]	-0.8%
COc1ccc(Cl)cc1NC(=O)Nc1cc(C)nc2ccccc12 [PCM-0095597]	9%
CC(=O)N1c2ccc(-c3ccc(C(=O)O)cc3)cc2[C@H](Nc2ccc(Cl)cc2)C[C@@H]1C [PCM-0215400]	31.7%
O=C(NC[C@H](O)CN1CCc2ccccc2C1)c1cc(NC2COC2)ncn1 [PCM-0215447]	1.5%
C=C1CCOC1=O [PCM-0215909]	0.8%
CCOc1ccc(Cc2cc([C@@H]3O[C@H](SC)[C@@H](O)[C@H](O)[C@H]3O)ccc2Cl)cc1 [PCM-0215557]	-17.8%
C[C@@H]1CCO[C@H]2Cn3cc(C(=O)NCc4ccc(F)cc4F)c(=O)c(O)c3C(=O)N12 [PCM-0214696]	30.4%
CCOc1nc2cccc(C(=O)O)c2n1Cc1ccc(-c2ccccc2-c2nn[nH]n2)cc1 [PCM-0086226]	24.1%
O=c1c2ccccc2nc2n1CCc1c-2[nH]c2ccccc12 [PCM-0065551]	0.7%
C[C@H](NC(=O)c1c(N)nn2cccnc12)c1cc2cccc(C#Cc3cnn(C)c3)c2c(=O)n1-c1ccccc1 [PCM-0215846]	20%
CN(C)[C@@H]1C(=O)C(C(N)=O)=C(O)[C@@]2(O)C(=O)C3=C(O)c4c(O)ccc(Cl)c4[C@@](C)(O)[C@H]3C[C@@H]12 [PCM-0215204]	10.2%
CC(=O)c1ccccc1O [PCM-0216621]	0.8%
CC(C)C[C@H](NC(=O)CNC(=O)c1cc(Cl)ccc1Cl)B(O)O [PCM-0095224]	5.4%
C[C@H](CCC(=O)O)[C@H]1CC[C@H]2[C@@H]3[C@@H](O)C[C@@H]4C[C@H](O)CC[C@]4(C)[C@H]3CC[C@]12C [PCM-0214641]	24.1%
CC1(C)S[C@@H]2[C@H](NC(=O)[C@H](C(=O)O)c3ccsc3)C(=O)N2[C@H]1C(=O)O [PCM-0214724]	-1.6%
COc1cc2ncnc(Nc3ccc(F)c(Cl)c3)c2cc1O [PCM-0216130]	5.4%
O=C(O)c1c[nH]c2cc(Cl)c(-c3ccc(C4(O)CCC4)cc3)cc12 [PCM-0215881]	24.7%
O=C(O)Cc1cccc(OCCCN(Cc2cccc(C(F)(F)F)c2Cl)CC(c2ccccc2)c2ccccc2)c1 [PCM-0095493]	23.4%
CCCNCC(O)COc1ccccc1C(=O)CCc1ccccc1 (centres unmarked) [PCM-0064846]	2.3%
CC1(C)CC[C@]2(C(=O)O[C@@H]3O[C@H](CO)[C@@H](O)[C@H](O)[C@H]3O)CC[C@]3(C)C(=CC[C@@H]4[C@@]5(C)CC[C@H](O[C@@H]6O[C@H](C(=O)O)[C@@H](O)[C@H](O)[C@H]6O)C(C)(C)[C@@H]5CC[C@]43C)[C@@H]2C1 [PCM-0216404]	3.1%
CC(C)NCC(O)COc1ccc(CCOCC2CC2)cc1 (centres unmarked) [PCM-0064542]	21%
C[C@@H](NCCc1ccc(O)cc1)[C@@H](O)c1ccc(O)cc1 [PCM-0214689]	0%
O=C1CC[C@@H](C(=O)N2CSC[C@H]2C(=O)O)N1 [PCM-0090672] ([pGlu]-[Thz]-OH)	11.7%
Cc1cc(C)c(CNC(=O)c2cc(-c3ccc(CN4CCOCC4)cc3)cc3c2cnn3C2CCCC2)c(=O)[nH]1 [PCM-0215223]	-6.8%
CCCc1ncc(C[n+]2ccccc2C)c(N)n1 [PCM-0085765]	-8.5%
Brc1ccc2[nH]ccc2c1 [PCM-0216166]	-11.6%
